{"source": "patent US20240299556A1", "about": "“Magnolol and Sulforaphane Conjgate, and Preparation Method and Use Thereof” (Shenzhen Zhenxing Biomedicine Research Center Co., Ltd., priority 2019, published 2024)", "assay_type_in_all_cases": "cell-based", "key": {"[1]": {"test_system": "human lung cancer cell line NCI-H460", "experiment": "Proliferation of NCI-H460 cells (CCK8 kit)", "experimental": "2.1 Cultivation of NCI-H460 Cells. The Cells, when Grow to the Logarithmic Growth phase, were digested with 0.25% trypsin, centrifuged at 1000×g for 5 min, and the cell pellet were re-suspended with 1640 medium containing 10% FBS and inoculated in a 96-well culture plate at a density of 5000 cells/well, and then cultured overnight at 37° C., 5% CO2 and saturated humidity.\n2.2 Six duplicate wells were set in each group, and drugs were added to each well according to the following conditions, and then cultured for 24 h.\nControl group: The group without drugs.\nMagnolol group: Magnolol added at a final concentration of 20 μM.\nCT-1 group: CT-1 added at a final concentration of 20 μM.\nCT-2 group: CT-2 added at a final concentration of 20 μM.\nCT-3 group: CT-3 added at a final concentration of 20 μM.\nThe above cells were intervened for 24 hours, and then the effects of drugs on tumor cell proliferation were detected by using CCK8 kit. The specific operations are as follows: […] was added to each well and cultured for 2 h, and then the absorbance (OD) value at a wavelength of 450 nm was measured on a microplate reader, and the cell survival rate of the other groups was calculated on the basis of the cell survival rate of the control group as 100%."}, "[2]": {"test_system": "seven human cancer cell lines", "experiment": "Proliferation of seven human cancer cell lines (CCK8 kit), summary over the panel", "experimental": "(§1) Human glioma cell line U251, human lung cancer cell line H1650, human liver cancer cell line HepG2, human breast cancer cell line MDA-MB-231, human gastric cancer cell line AGS, human colon cancer cell line LOVO, human ovarian cancer cell line OVCAR3. 2.1 Cultivation of the above 7 kinds of cancer cells. The cells, when grow to the logarithmic growth phase, were digested with 0.25% trypsin, centrifuged at 1000×g for 5 min, and the cell pellet were re-suspended with 1640 medium containing 10% FBS and inoculated in a 96-well culture plate at a density of 5000 cells/well, and then cultured overnight at 37° C., 5% CO2 and saturated humidity. 2.2 Each group was set up with 6 duplicate wells, and drugs were added to each well according to the following conditions, and then cultured for 24 h. Positive control groups: […] Sulforaphane added at a final concentration of 5.0 μM; • Positive control group 5: Sulforaphane added at a final concentration of 10.0 μM; • Positive control group 6: Sulforaphane added at a final concentration of 20.0 μM. CT-3 groups: Divided into 3 groups: • CT-3 group 1: CT-3 added at a final concentration of 5.0 μM; • CT-3 group 2: CT-3 added at a final concentration of 10.0 μM; • CT-3 group 3: CT-3 added at a final concentration of 20.0 μM. The above cells were intervened for 24 hours, and then the effects of drugs on tumor cell proliferation were detected by using CCK8 kit."}, "[3]": {"test_system": "human ovarian cancer cell line OVCAR3", "experiment": "Proliferation of OVCAR3 cells (CCK8 kit)", "experimental": "as §1"}, "[4]": {"test_system": "human gastric cancer cell line AGS", "experiment": "Proliferation of AGS cells (CCK8 kit)", "conditions": "24 h", "experimental": "as §1"}, "[5]": {"test_system": "human liver cancer cell line HepG2", "experiment": "Proliferation of HepG2 cells (CCK8 kit)", "conditions": "HepG2, 24 h", "experimental": "as §1"}, "[6]": {"test_system": "human colon cancer cell line SW480", "experiment": "Apoptosis of SW480 cells (apoptosis detection kit, flow cytometry)", "conditions": "SW480, 10.0 μM, 24 h", "experimental": "(§2) The cells, when grow to the logarithmic growth phase, were digested with 0.25% trypsin, centrifuged at 1000×g for 5 min, and the cell pellet were re-suspended with 1640 medium containing 10% FBS and inoculated in a 6-well culture plate at a density of 3.0×10^5 cells/well, and then cultured overnight at 37° C., 5% CO2 and saturated humidity. 2.2 Each group was set up with 3 duplicate wells, and drugs were added to each well according to the following conditions, and then cultured for 24 h. […] Sulforaphane added at a final concentration of 10.0 μM. CT-3 group: CT-3 was added at a final concentration of 10.0 μM. The above cells were intervened for 24 hours, and then the effect of CT-3 on tumor cell apoptosis was determined by apoptosis detection kit and flow cytometry."}, "[7]": {"test_system": "human glioma cell line U251", "experiment": "Proliferation of U251 cells (CCK8 kit)", "experimental": "as §1"}, "[8]": {"test_system": "human hepatic normal cell line LO2", "experiment": "Apoptosis of normal LO2 cells (apoptosis detection kit, flow cytometry)", "conditions": "24 h"}, "[9]": {"test_system": "human breast cancer cell line MDA-MB-231", "experiment": "Proliferation of MDA-MB-231 cells (CCK8 kit)", "conditions": "MDA-MB-231, 24 h", "experimental": "as §1"}, "[10]": {"test_system": "human colon cancer cell line LOVO", "experiment": "Proliferation of LOVO cells (CCK8 kit)", "conditions": "24 h", "experimental": "as §1"}, "[11]": {"test_system": "human lung cancer cell line H1650", "experiment": "Proliferation of H1650 cells (CCK8 kit)", "experimental": "as §1"}, "[12]": {"test_system": "human lung cancer cell line NCI-H460", "experiment": "Apoptosis of NCI-H460 cells (apoptosis detection kit, flow cytometry)", "conditions": "NCI-H460, 10.0 μM, 24 h", "experimental": "as §2, with “[…]” for “6-well”, “CT-3” for “CT-3 was”"}, "[13]": {"conditions": "NCI-H460, 20 μM, 24 h, CCK8, read-out: Inhibition Rate (%)"}, "[14]": {"conditions": "U251, H1650, HepG2, MDA-MB-231, AGS, LOVO, OVCAR3, 24 h, CCK8, read-out: IC50 against 7 kinds of human cancer cells (range over the panel)"}, "[15]": {"conditions": "OVCAR-3, OVCAR3, 24 h, CCK8, read-out: Half maximal inhibitory concentration (IC50)"}, "[16]": {"conditions": "CCK8, read-out: Half maximal inhibitory concentration (IC50)"}, "[17]": {"conditions": "U-251, U251, 24 h, CCK8, read-out: Half maximal inhibitory concentration (IC50)"}, "[18]": {"conditions": "LOVO, CCK8, read-out: Half maximal inhibitory concentration (IC50)"}, "[19]": {"conditions": "NCI-H1650, H1650, 24 h, CCK8, read-out: Half maximal inhibitory concentration (IC50)"}, "[20]": {"conditions": "read-out: Half maximal inhibitory concentration (IC50)"}}, "note": "Read-outs that look alike come from different tables or passages of the source."}
{"smiles": "C=CCc1ccc(O)c(-c2cc(CC=C)ccc2OCCSCCCCN=C=S)c1", "note": "[CT-1]", "values": [{"measurement": "inhibition at 20 µM", "setting": "[1]; [13]", "value": 18.4, "unit": "%"}]}
{"smiles": "C=CCc1ccc(O)c(-c2cc(CC=C)ccc2OCCS(=O)(=O)CCCCN=C=S)c1", "note": "[CT-2]", "values": [{"measurement": "inhibition at 20 µM", "setting": "[1]; [13]", "value": 70.3, "unit": "%"}]}
{"smiles": "C=CCc1ccc(O)c(-c2cc(CC=C)ccc2OCC[S+]([O-])CCCCN=C=S)c1", "note": "(stereo not shown) [CT-3]", "values": [{"measurement": "IC50", "setting": "[2]; [14]", "value": "5.1 to 8.02", "unit": "µM"}, {"measurement": "IC50", "setting": "[3]; [15]", "value": 5.34, "unit": "µM"}, {"measurement": "IC50", "setting": "[4]; [16]", "value": 8.02, "unit": "µM"}, {"measurement": "IC50", "setting": "[5]; [16]", "value": 6.24, "unit": "µM"}, {"measurement": "Apoptosis Rate (%)", "setting": "[6]", "value": 61.87, "unit": "%"}, {"measurement": "IC50", "setting": "[7]; [17]", "value": 7.75, "unit": "µM"}, {"measurement": "Apoptosis Rate (%)", "setting": "[8]; human, 10 μM", "value": 6.48, "unit": "%"}, {"measurement": "IC50", "setting": "[9]; [16]", "value": 7.48, "unit": "µM"}, {"measurement": "IC50", "setting": "[10]; [18]", "value": 5.1, "unit": "µM"}, {"measurement": "IC50", "setting": "[11]; [19]", "value": 6.92, "unit": "µM"}, {"measurement": "Apoptosis Rate (%)", "setting": "[12]", "value": 73.82, "unit": "%"}, {"measurement": "inhibition at 20 µM", "setting": "[1]; [13]", "value": 99, "unit": "%"}]}
{"smiles": "C=CCc1ccc(O)c(-c2cc(CC=C)ccc2O)c1", "note": "[Magnolol]", "values": [{"measurement": "IC50", "setting": "[2]; 24 h, read-out: IC50 against 7 kinds of human cancer cells (range over the panel)", "value": "> 45", "unit": "µM"}, {"measurement": "IC50", "setting": "[3]; OVCAR-3, 24 h, read-out: Half maximal inhibitory concentration (IC50)", "value": "> 45", "unit": "µM"}, {"measurement": "IC50", "setting": "[4]; [20]", "value": "> 45", "unit": "µM"}, {"measurement": "IC50", "setting": "[5]; [20]", "value": "> 45", "unit": "µM"}, {"measurement": "Apoptosis Rate (%)", "setting": "[6]", "value": 4.02, "unit": "%"}, {"measurement": "IC50", "setting": "[7]; U-251, 24 h, read-out: Half maximal inhibitory concentration (IC50)", "value": "> 45", "unit": "µM"}, {"measurement": "Apoptosis Rate (%)", "setting": "[8]; normal LO2 cells, 10.0 μM, flow cytometry", "value": 4.71, "unit": "%"}, {"measurement": "IC50", "setting": "[9]; [20]", "value": "> 45", "unit": "µM"}, {"measurement": "IC50", "setting": "[10]; LoVo, read-out: Half maximal inhibitory concentration (IC50)", "value": "> 45", "unit": "µM"}, {"measurement": "IC50", "setting": "[11]; NCI-H1650, 24 h, read-out: Half maximal inhibitory concentration (IC50)", "value": "> 45", "unit": "µM"}, {"measurement": "Apoptosis Rate (%)", "setting": "[12]", "value": 3.12, "unit": "%"}, {"measurement": "inhibition at 20 µM", "setting": "[1]; NCI-H460, 24 h, read-out: Inhibition Rate (%)", "value": 1.2, "unit": "%"}]}
{"smiles": "C[S+]([O-])CCCCN=C=S", "note": "(stereo not shown) [Sulforaphane]", "values": [{"measurement": "IC50", "setting": "[2]; [14]", "value": "18.4 to 22.5", "unit": "µM"}, {"measurement": "IC50", "setting": "[3]; [15]", "value": 18.4, "unit": "µM"}, {"measurement": "IC50", "setting": "[4]; [16]", "value": 18.1, "unit": "µM"}, {"measurement": "IC50", "setting": "[5]; [16]", "value": 21, "unit": "µM"}, {"measurement": "Apoptosis Rate (%)", "setting": "[6]", "value": 19.99, "unit": "%"}, {"measurement": "IC50", "setting": "[7]; [17]", "value": 22.5, "unit": "µM"}, {"measurement": "Apoptosis Rate (%)", "setting": "[8]; human, 10 μM", "value": 6.52, "unit": "%"}, {"measurement": "IC50", "setting": "[9]; [16]", "value": 22.2, "unit": "µM"}, {"measurement": "IC50", "setting": "[10]; [18]", "value": 18.5, "unit": "µM"}, {"measurement": "IC50", "setting": "[11]; [19]", "value": 22, "unit": "µM"}, {"measurement": "Apoptosis Rate (%)", "setting": "[12]", "value": 18.90, "unit": "%"}]}
